Assay results taken from paper PMC12268802, “The herbicidal natural product phosphonothrixin is an inhibitor of the riboflavin biosynthetic enzyme L‐3,4‐dihydroxy‐2‐butanone‐4‐phosphate synthase” (Pest Management Science, 2025).

Assays:
[1] = target: T1, AtDHBPS (Arabidopsis thaliana, UniProt P47924); experiment: DHBPS activity assay; type: biochemical
T1 construct: made in house; host or cells: Escherichia coli BL21(DE3)
T1 sequence (P47924 with tags, fused parts or gaps): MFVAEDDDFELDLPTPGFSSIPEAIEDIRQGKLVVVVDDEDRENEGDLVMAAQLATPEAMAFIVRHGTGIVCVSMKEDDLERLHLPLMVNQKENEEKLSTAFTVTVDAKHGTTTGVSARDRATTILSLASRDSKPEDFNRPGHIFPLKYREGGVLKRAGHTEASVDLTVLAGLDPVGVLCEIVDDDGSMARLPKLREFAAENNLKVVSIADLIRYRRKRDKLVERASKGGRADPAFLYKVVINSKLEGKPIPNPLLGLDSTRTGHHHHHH
Experimental: DHBPS activity assays were out carried in 96‐well microtiter plates using a modification of the procedure previously described.[18] The reaction mixture contained 100 mM MES (2‐morpholinoethanesulfonic acid) buffer pH 6.5, 20 mM MgCl2, 20 mM D‐ribose‐5‐phosphate (Sigma‐Aldrich R7750), 0.02% Tween‐20, 0.2 mg BSA, 0.5 μg of spinach phosphoriboisomerase (Sigma‐Aldrich P9752) and DHBPS enzyme in a final volume of 110 μL. Assays were initiated by adding enzyme and terminated after 120 min incubation at rt by the addition of 90 μL of a solution of 3.5% α‐naphthol and 0.2% creatine in 2 N NaOH. After an additional 45 min incubation at rt the absorbance was determined at 540 nm. The pI50‐value for inhibition by phosphonothrixin (1) was determined with the XLFit Excel add‐in version 4.3.1 curve fitting program of ID Business Solutions Limited. […] Reaction velocities were fitted to the Michaelis–Menten equation with the XLFit curve fitting program.

[2] = target: T1, AtDHBPS; experiment: Thermal stability shift analysis; type: binding; details: 6.5 μM AtDHBPS
Experimental: AtDHBPS melting curves were determined in 96‐well microtiter plates in a Roche Light Cycler 480. The assay mixture contained 50 mM HEPES pH 7.5, 75 mM NaCl, 2.5 mM MgCl2, 7.5x SYPRO Orange and 6.5 μM AtDHBPS in a total volume of 20 μL. A linear temperature gradient from 25 to 85 °C with a ramping of 3.25 °C min^−1 was applied. Melting temperatures were determined from plots of the first derivative of the fluorescence intensity versus temperature.

[3] = system: Lemna gibba; experiment: Lemna gibba growth assay; type: in vivo; details: 100 μM phosphonothrixin; 7 days
Experimental: Growth experiments were performed in sterile 6‐well cell culture plates and were initiated by transferring four Lemna gibba fronds per well to 5 mL of K‐medium[22] pH 4.8 containing 1% (w/v) sucrose and a selected concentration of phosphonothrixin (1) and riboflavin determined from previous experiments. The cell culture plates were incubated for 7 days in a growth cabinet at 22 °C and a continuous photon flux density of 75 μE/m^2s.

In the case of `CC(=O)C(O)(CO)CP(=O)(O)O` (centres unmarked) [phosphonothrixin], the IC50 [1] is reported as 58 ± 11 µM, the Ki [1] is reported as 16.6 ± 5 µM and the “type of inhibition of AtDHBPS” value ([1]; with respect to the substrate) is reported as “competitive inhibitor”. For the same molecule, the ΔTm at 10 µM ([2]; compound 10 μM, read-out: shift of the melting point (deltaTm) of AtDHBPS) was 4 °C, the “deltaTm(max)” value ([2]; from plot of deltaTm vs. concentration) was 22.7 ± 0.6 °C and the Kd ([2]; from plot of deltaTm vs. concentration, read-out: Kd-value for binding to AtDHBPS) was 31.1 ± 2.8 µM. The “bleaching of Lemna gibba fronds” value [3] was “strong bleaching of the fronds” and the “growth of Lemna gibba” value [3] was “significant growth inhibition”.
